# Target: AMPK alpha2/beta2/gamma3 (Homo sapiens, UniProt O43741+P54646+Q9UGI9)
# Assay: Activation of human AMPK (alpha2/beta2/gamma3) transiently transfected in HEK293 cells assessed as phosphorylation at […]Thr172 incubated for 20 mins by AlphaLISA assay
# Assay type: cell-based
# Conditions: not given
# AMPK alpha2/beta2/gamma3, sequence (P54646 whole entry): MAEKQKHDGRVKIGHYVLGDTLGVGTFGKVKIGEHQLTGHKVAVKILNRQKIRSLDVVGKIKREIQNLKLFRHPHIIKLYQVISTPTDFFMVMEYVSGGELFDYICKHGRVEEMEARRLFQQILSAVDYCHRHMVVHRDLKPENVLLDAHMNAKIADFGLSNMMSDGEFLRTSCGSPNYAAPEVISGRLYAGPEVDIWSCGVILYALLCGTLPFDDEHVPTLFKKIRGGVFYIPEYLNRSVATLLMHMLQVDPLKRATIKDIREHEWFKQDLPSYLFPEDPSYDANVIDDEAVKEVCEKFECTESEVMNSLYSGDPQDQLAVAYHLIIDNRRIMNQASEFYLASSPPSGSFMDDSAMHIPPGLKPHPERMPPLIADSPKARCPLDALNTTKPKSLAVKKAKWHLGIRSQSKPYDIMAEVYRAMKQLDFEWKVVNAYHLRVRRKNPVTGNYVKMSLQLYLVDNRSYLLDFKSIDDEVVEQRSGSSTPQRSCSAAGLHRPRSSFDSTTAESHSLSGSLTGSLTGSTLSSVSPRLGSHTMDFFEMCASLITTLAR
# AMPK alpha2/beta2/gamma3, sequence (O43741 whole entry): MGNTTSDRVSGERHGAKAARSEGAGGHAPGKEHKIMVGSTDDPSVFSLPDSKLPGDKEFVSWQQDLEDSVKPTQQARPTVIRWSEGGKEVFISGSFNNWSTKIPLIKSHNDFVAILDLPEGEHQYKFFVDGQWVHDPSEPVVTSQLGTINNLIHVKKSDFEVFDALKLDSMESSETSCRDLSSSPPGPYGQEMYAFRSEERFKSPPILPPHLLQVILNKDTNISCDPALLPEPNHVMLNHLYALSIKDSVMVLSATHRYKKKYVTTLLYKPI
# AMPK alpha2/beta2/gamma3, sequence (Q9UGI9 whole entry): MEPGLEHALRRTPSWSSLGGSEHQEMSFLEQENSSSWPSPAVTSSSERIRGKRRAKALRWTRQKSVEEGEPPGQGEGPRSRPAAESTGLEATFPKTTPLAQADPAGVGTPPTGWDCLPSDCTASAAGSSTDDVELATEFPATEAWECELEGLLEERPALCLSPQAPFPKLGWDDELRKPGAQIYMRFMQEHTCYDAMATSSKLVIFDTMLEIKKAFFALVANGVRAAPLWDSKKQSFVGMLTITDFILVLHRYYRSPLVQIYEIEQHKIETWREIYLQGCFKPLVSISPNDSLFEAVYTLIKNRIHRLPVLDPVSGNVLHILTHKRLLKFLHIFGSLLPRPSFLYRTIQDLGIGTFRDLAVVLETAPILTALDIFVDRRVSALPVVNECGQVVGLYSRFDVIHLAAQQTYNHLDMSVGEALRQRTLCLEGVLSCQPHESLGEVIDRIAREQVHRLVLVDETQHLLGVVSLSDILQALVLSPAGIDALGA
row,Compound,EC50 [nM]
1,CNCc1ccc(N2C[C@](C)(c3cccc(Cl)c3F)c3nc(NC4CN(C(=O)[C@@H]5C[C@@H]5F)C4)ncc3C2=O)cc1F,2500
2,Cn1cc(F)c(N2CC(C)(c3cccc(Cl)c3F)c3c(cnc(NC4CN([C@H]5CCCNC5=O)C4)c3F)C2=O)n1 (some centres not stated),27.2
3,Cn1cc(F)c(N2C[C@](C)(c3cccc(Cl)c3F)c3c(cnc(NC4CN(C(=O)[C@@](C)(O)C5CC5)C4)c3F)C2=O)n1,21.3

# Target: AMPK alpha2/beta2/gamma3 (Homo sapiens) (UniProt P54646+O43741+Q9UGI9)
# Sequence (O43741 whole entry, looked up): as the sequence (O43741 whole entry) above
# Sequence (P54646 whole entry, looked up): as the sequence (P54646 whole entry) above
# Sequence (Q9UGI9 whole entry, looked up): as the sequence (Q9UGI9 whole entry) above
# Assay: Activation of human AMPK alpha2/beta2/gamma3 transiently transfected in HEK293 cells assessed as phosphorylation at […]Thr172 by measuring asymptotic max incubated for 20 mins by AlphaLISA assay relative to control
# Assay type: cell-based
# Conditions: not given
row,Compound,max activation [%]
1,C[C@]1(c2cccc(Cl)c2F)CN(c2cc(OC(F)F)ccn2)C(=O)c2cnc(NC3CN(C(=O)[C@@H]4C[C@@H]4F)C3)c(F)c21,30.9

# Same assay, conditions: filed as activator
row,Compound,max activation [%]
1,CNCc1ccc(N2C[C@](C)(c3cccc(Cl)c3F)c3nc(NC4CN(C(=O)[C@@H]5C[C@@H]5F)C4)ncc3C2=O)cc1F,154
2,CN1CCCC(N2CC(Nc3ncc4c(c3F)[C@@](C)(c3cccc(Cl)c3F)CN(c3nn(C)cc3F)C4=O)C2)C1=O (some centres not stated),139
3,C[C@]1(c2cccc(Cl)c2F)CN(c2ncccc2F)C(=O)c2cnc(NC3CN(C(=O)C4(O)CC4)C3)c(F)c21,112
4,C[C@]1(c2cccc(Cl)c2F)CN(c2ccc([C@@H]3COCCN3)cn2)C(=O)c2cnc(NC3CN(C(=O)c4cccnn4)C3)c(F)c21,120
5,Cn1cc(F)c(N2C[C@](C)(c3cccc(Cl)c3F)c3c(cnc(NC4CN(C(=O)[C@@H]5C[C@@H]5F)C4)c3F)C2=O)n1,81.7
6,CC1(c2ccc(F)c(Cl)c2F)CN(c2ccc(CO)cn2)C(=O)c2cnc(NC3CN(C(=O)N4C[C@@H]5C[C@H]4CO5)C3)c(F)c21 (some centres not stated),113
7,Cn1cc(F)c(N2CC(C)(c3cccc(Cl)c3F)c3c(cnc(NC4CN([C@H]5CCCNC5=O)C4)c3F)C2=O)n1 (some centres not stated),119
8,Cn1cc(F)c(N2C[C@](C)(c3cccc(Cl)c3F)c3c(cnc(NC4CN(C(=O)C5CCC(F)(F)CN5)C4)c3F)C2=O)n1 (some centres not stated),85.5
9,Cn1cc(F)c(N2CC(C)(c3cccc(Cl)c3F)c3c(cnc(N[C@@H]4CCN(C(=O)N5C[C@@H]6C[C@H]5CO6)C4)c3F)C2=O)n1 (some centres not stated),52.2
10,CC1(c2cccc(Cl)c2F)CN(c2ncccc2F)C(=O)c2cnc(NC3CN(C(=O)N4CCC[C@@H]4CO)C3)nc21 (some centres not stated),106
11,Cn1cc(F)c(N2C[C@](C)(c3cccc(Cl)c3F)c3c(cnc(NC4CN(C(=O)C(O)CC(F)(F)F)C4)c3F)C2=O)n1 (some centres not stated),100
12,Cn1cc(F)c(N2C[C@](C)(c3cccc(Cl)c3F)c3c(cnc(NC4CN(C(=O)CC(F)(F)F)C4)c3F)C2=O)n1,90
13,Cn1cc(F)c(N2C[C@](C)(c3cccc(Cl)c3F)c3c(cnc(NC4CN(C(=O)[C@@](C)(O)C5CC5)C4)c3F)C2=O)n1,89.6
